Results: US20230089867A1, “CYCLIC PENTAMER COMPOUNDS AS PROPROTEIN CONVERTASE SUBTILISIN/KEXIN TYPE 9 (PCSK9) INHIBITORS FOR THE TREATMENT OF METABOLIC DISORDER” (Novartis AG, priority 2018, published 2023)

Target: human PCSK9 (Homo sapiens, UniProt Q8NBP7)
Test: PCSK9 ligand binding TR-FRET assay (interference with binding of human PCSK9 to human LDLR)
Details: for Max % inhibition: PCSK9 FRET assay, efficacy (Amax), 100% = 1 uM unlabeled human PCSK9, 0% = DMSO; for IC50: TR-FRET, human PCSK9 Alexa Fluor 647 / human LDLR extracellular domain-Europium Kryptate, read-out: PCSK9 FRET Assay IC50
Summary of the method: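 Threefold compound dilutions were pre-incubated 30 min with PCSK9, after which 4 nM Europium Kryptate-tagged human LDLR ectodomain was added for a further 2 h.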

Sequence of human PCSK9 (Q8NBP7 153-692): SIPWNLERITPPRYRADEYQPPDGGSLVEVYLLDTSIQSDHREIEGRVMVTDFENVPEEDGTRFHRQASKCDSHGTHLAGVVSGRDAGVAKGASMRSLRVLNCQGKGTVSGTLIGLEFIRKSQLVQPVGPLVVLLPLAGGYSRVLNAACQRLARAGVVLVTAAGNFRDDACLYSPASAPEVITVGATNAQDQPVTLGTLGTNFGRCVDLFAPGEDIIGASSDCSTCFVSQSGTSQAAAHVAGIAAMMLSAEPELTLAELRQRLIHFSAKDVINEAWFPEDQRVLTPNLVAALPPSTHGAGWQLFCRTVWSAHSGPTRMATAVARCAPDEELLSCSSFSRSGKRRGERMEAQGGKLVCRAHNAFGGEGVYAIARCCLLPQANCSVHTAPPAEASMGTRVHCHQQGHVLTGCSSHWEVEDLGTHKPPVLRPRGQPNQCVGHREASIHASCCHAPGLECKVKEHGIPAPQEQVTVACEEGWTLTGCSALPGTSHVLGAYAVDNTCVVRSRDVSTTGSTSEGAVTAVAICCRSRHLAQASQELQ
Sequence of human PCSK9 (Q8NBP7 31-152 partner limits assumed): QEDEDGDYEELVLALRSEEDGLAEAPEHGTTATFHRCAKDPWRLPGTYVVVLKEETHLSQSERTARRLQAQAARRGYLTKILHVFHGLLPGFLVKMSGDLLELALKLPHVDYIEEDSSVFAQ

| Compound | Max % inhibition | IC50 |
| --- | --- | --- |
| COC[C@@H]1NC(=O)[C@H](CCCN(C)C)N(Cc2ccc(Cl)cc2Oc2ccc(-c3cnc(CN4CCCC4)n3C)cc2)C(=O)C[C@@H](Cc2ccccc2)C(=O)N(C)[C@H]2CCCC[C@@H]2NC(=O)C[C@H](Cc2ccc(Cl)cc2)N(C)C1=O [Compound 285, (4S,7S,10S,14R,16aS,20aS)-14-benzyl-11-(4-chloro-2-(4-(1-methyl-2-(pyrrolidin-1-ylmethyl)-1H-imidazol-5-yl)phenoxy)benzyl)-4-(4-chlorobenzyl)-10-(3-(dimethylamino)propyl)-7-(methoxymethyl)-5,16-dimethylhexadecahydrobenzo[l][1,4,7,11,14]pentaazacyclooctadecine-2,6,9,12,15(3H)-pentaone] | 90.24% | 2.1 nM |
| COC[C@@H]1NC(=O)[C@H](C)N(Cc2ccc(Cl)cc2Oc2ccc(-c3cnc(CN(C)C)n3C)cc2)C(=O)C[C@@H](OC)C(=O)N(C)[C@@H](C)CNC(=O)C[C@H](Cc2ccc(Cl)cc2)N(C)C1=O [Compound 159, (2S,5S,8S,13S,16R)-1-(4-chloro-2-(4-(2-((dimethylamino)methyl)-1-methyl-1H-imidazol-5-yl)phenoxy)benzyl)-8-(4-chlorobenzyl)-16-methoxy-5-(methoxymethyl)-2,7,13,14-tetramethyl-1,4,7,11,14-pentaazacyclooctadecane-3,6,10,15,18-pentaone] | 55.26% | 74 nM |
| CCc1ncc(-c2ccc(Oc3cc(Cl)ccc3CN3C(=O)C[C@@H](Cc4ccccc4)C(=O)N(C)[C@@H](C)CNC(=O)C[C@H](Cc4ccc(Cl)cc4)N(C)C(=O)[C@H](COC)NC(=O)[C@@H]3C)cc2)n1C [Compound 181, (2S,5S,8S,13S,16R)-16-benzyl-1-(4-chloro-2-(4-(2-ethyl-1-methyl-1H-imidazol-5-yl)phenoxy)benzyl)-8-(4-chlorobenzyl)-5-(methoxymethyl)-2,7,13,14-tetramethyl-1,4,7,11,14-pentaazacyclooctadecane-3,6,10,15,18-pentaone] | 54.93% | 10.3 nM |
| C[C@H]1CNC(=O)C[C@H](Cc2ccc(Cl)cc2)N(C)C(=O)[C@H](CO)NC(=O)[C@H](C)N(Cc2ccccc2OCC(=O)N2Cc3cccnc3C2)C(=O)C[C@@H](Cc2ccccc2)C(=O)N1C (stereo in doubt) [Compound 143, (2S,5S,8S,13S,16R)-16-benzyl-8-(4-chlorobenzyl)-5-(hydroxymethyl)-2,7,13,14-tetramethyl-1-(2-(2-oxo-2-(5H-pyrrolo[3,4-b]pyridin-6(7H)-yl)ethoxy)benzyl)-1,4,7,11,14-pentaazacyclooctadecane-3,6,10,15,18-pentaone] | 49.36% | 774 nM |
| COC[C@@H]1NC(=O)[C@H](C)N(Cc2ccc(Cl)cc2Oc2ccc(-c3cnc4c(c3)CNCC4)cc2)C(=O)C[C@@H](Cc2ccccc2)C(=O)N(C)[C@@H](C)CNC(=O)C[C@H](Cc2ccc(Cl)cc2)N(C)C1=O [Compound 115, (2S,5S,8S,13S,16R)-16-benzyl-1-(4-chloro-2-(4-(5,6,7,8-tetrahydro-1,6-naphthyridin-3-yl)phenoxy)benzyl)-8-(4-chlorobenzyl)-5-(methoxymethyl)-2,7,13,14-tetramethyl-1,4,7,11,14-pentaazacyclooctadecane-3,6,10,15,18-pentaone] | 72.72% | 5.3 nM |
| CC=CC[C@@H]1CC(=O)N(Cc2ccc(Cl)cc2Oc2ccc(-c3cnc(CN(C)C)n3C)cc2)[C@@H](C)C(=O)N[C@@H](COC)C(=O)N(C)[C@@H](Cc2ccc(Cl)cc2)CC(=O)N[C@H]2CCCC[C@@H]2N(C)C1=O [Compound 286, (4S,7S,10S,14R,16aS,20aS)-14-(but-2-en-1-yl)-11-(4-chloro-2-(4-(2-((dimethylamino)methyl)-1-methyl-1H-imidazol-5-yl)phenoxy)benzyl)-4-(4-chlorobenzyl)-7-(methoxymethyl)-5,10,16-trimethylhexadecahydrobenzo[l][1,4,7,11,14]pentaazacyclooctadecine-2,6,9,12,15(3H)-pentaone] | 59.34% | 0.7 nM |
| COC[C@@H]1NC(=O)[C@H](C)N(Cc2ccc(Cl)cc2Oc2ccc(-c3cnc(CN(C)C)n3C)cc2)C(=O)C[C@@H](Cc2ccccn2)C(=O)N(C)[C@H]2CCCC[C@@H]2NC(=O)C[C@H](Cc2ccc(Cl)cc2)N(C)C1=O [Compound 284, (4S,7S,10S,14R,16aS,20aS)-11-(4-chloro-2-(4-(2-((dimethylamino)methyl)-1-methyl-1H-imidazol-5-yl)phenoxy)benzyl)-4-(4-chlorobenzyl)-7-(methoxymethyl)-5,10,16-trimethyl-14-(pyridin-2-ylmethyl)hexadecahydrobenzo[l][1,4,7,11,14]pentaazacyclooctadecine-2,6,9,12,15(3H)-pentaone] | 98.50% | 0.9 nM |
| COC[C@@H]1NC(=O)[C@H](C)N(Cc2c(F)cc(F)cc2Oc2ccc(-c3cnc(CN(C)C)n3C)cc2)C(=O)C[C@@H](Cc2ccccc2)C(=O)N(C)[C@H]2CCCC[C@@H]2NC(=O)C[C@H](Cc2ccc(Cl)cc2)N(C)C1=O [Compound 208, (4S,7S,10S,14R,16aS,20aS)-14-benzyl-4-(4-chlorobenzyl)-11-(2-(4-(2-((dimethylamino)methyl)-1-methyl-1H-imidazol-5-yl)phenoxy)-4,6-difluorobenzyl)-7-(methoxymethyl)-5,10,16-trimethylhexadecahydrobenzo[l][1,4,7,11,14]pentaazacyclooctadecine-2,6,9,12,15(3H)-pentaone] | 87.45% | 2.7 nM |
| COC[C@@H]1NC(=O)[C@H](C)N(Cc2ccc(Cl)cc2Oc2ccc(-c3cnc(CN(C)C)n3C)cc2)C(=O)C[C@@H](Cc2cccc[n+]2[O-])C(=O)N(C)[C@H]2CCCC[C@@H]2NC(=O)C[C@H](Cc2ccc(Cl)cc2)N(C)C1=O [Compound 172, 2-(((4S,7S,10S,14R,16aS,20aS)-11-(4-chloro-2-(4-(2-((dimethylamino)methyl)-1-methyl-1H-imidazol-5-yl)phenoxy)benzyl)-4-(4-chlorobenzyl)-7-(methoxymethyl)-5,10,16-trimethyl-2,6,9,12,15-pentaoxodocosahydrobenzo[l][1,4,7,11,14]pentaazacyclooctadecin-14-yl)methyl)pyridine 1-oxide] | 102.44% | 1.4 nM |

Now from value to molecule:

| Max % inhibition | IC50 | Compound |
| --- | --- | --- |
| 98.16% | 3.1 nM | COC[C@@H]1NC(=O)[C@H](C)N(Cc2ccccc2Oc2ccc(-c3cnc(CN(C)C)n3C)cc2)C(=O)C[C@@H](Cc2ccccc2)C(=O)N(C)[C@@H](C)CNC(=O)C[C@H](Cc2ccc(Cl)cc2)N(C)C1=O [Compound 9, (2S,5S,8S,13S,16R)-16-benzyl-8-(4-chlorobenzyl)-1-(2-(4-(2-((dimethylamino)methyl)-1-methyl-1H-imidazol-5-yl)phenoxy)benzyl)-5-(methoxymethyl)-2,7,13,14-tetramethyl-1,4,7,11,14-pentaazacyclooctadecane-3,6,10,15,18-pentaone] |
| 98.36% | 2.3 nM | COC[C@@H]1NC(=O)[C@H](C)N(Cc2ccc(Cl)cc2Oc2ccc(-c3cnc4n3CC[N+]3(CCCC3)C4)cc2)C(=O)C[C@@H](Cc2ccccc2)C(=O)N(C)[C@@H](C)CNC(=O)C[C@H](Cc2ccc(Cl)cc2)N(C)C1=O.Cl.[Cl-] [Compound 249, 3-(4-(2-(((2S,5S,8S,13S,16R)-16-benzyl-8-(4-chlorobenzyl)-5-(methoxymethyl)-2,7,13,14-tetramethyl-3,6,10,15,18-pentaoxo-1,4,7,11,14-pentaazacyclooctadecan-1-yl)methyl)-5-chlorophenoxy)phenyl)-5,6-dihydro-8H-spiro[imidazo[1,2-a]pyrazine-7,1′-pyrrolidin]-7-ium chloride hydrochloride] |
| 90.79% | 2 nM | COC[C@@H]1NC(=O)[C@H](C)N(Cc2ccc(Cl)cc2Oc2ccc(-c3cnc(CN4CCCC4)n3C)cc2)C(=O)C[C@@H](Cc2ccccc2)C(=O)N(C)[C@H]2CCCC[C@@H]2NC(=O)C[C@H](Cc2ccc(Cl)cc2)N(C)C1=O [Compound 203, (4S,7S,10S,14R,16aS,20aS)-14-benzyl-11-(4-chloro-2-(4-(1-methyl-2-(pyrrolidin-1-ylmethyl)-1H-imidazol-5-yl)phenoxy)benzyl)-4-(4-chlorobenzyl)-7-(methoxymethyl)-5,10,16-trimethylhexadecahydrobenzo[l][1,4,7,11,14]pentaazacyclooctadecine-2,6,9,12,15(3H)-pentaone] |
| 66.09% | 2.4 nM | CC(O)c1ncc(-c2ccc(Oc3cc(Cl)ccc3CN3C(=O)C[C@@H](Cc4ccccc4)C(=O)N(C)[C@@H](C)CNC(=O)C[C@H](Cc4ccc(Cl)cc4)N(C)C(=O)[C@H](CO)NC(=O)[C@@H]3C)cc2)n1C (stereo partly drawn) [Compound 21, (2S,5S,8S,13S,16R)-16-benzyl-1-(4-chloro-2-(4-(2-(1-hydroxyethyl)-1-methyl-1H-imidazol-5-yl)phenoxy)benzyl)-8-(4-chlorobenzyl)-5-(hydroxymethyl)-2,7,13,14-tetramethyl-1,4,7,11,14-pentaazacyclooctadecane-3,6,10,15,18-pentaone] |
| 77.84% | 30.5 nM | CCOc1ncc(-c2ccc(Oc3cc(Cl)ccc3CN3C(=O)C[C@@H](Cc4ccccc4)C(=O)N(C)[C@@H](C)CNC(=O)C[C@H](Cc4ccc(Cl)cc4)N(C)C(=O)[C@H](COC)NC(=O)[C@@H]3C)cc2)n1C [Compound 68, (2S,5S,8S,13S,16R)-16-benzyl-1-(4-chloro-2-(4-(2-ethoxy-1-methyl-1H-imidazol-5-yl)phenoxy)benzyl)-8-(4-chlorobenzyl)-5-(methoxymethyl)-2,7,13,14-tetramethyl-1,4,7,11,14-pentaazacyclooctadecane-3,6,10,15,18-pentaone] |
